Key:
[1] = 101 kPa, Liquid; for viscosity: Falling or rolling sphere viscometry; for mass density: Vibrating tube method
[2] = xn = mol fraction of the nth substance listed; details: 101 kPa, Liquid, x2 = 0; for viscosity: Falling or rolling sphere viscometry; for mass density: Vibrating tube method

CC[N+](CC)=C(N(C)C)N(C)C.O=S(=O)([N-]S(=O)(=O)C(F)(F)F)C(F)(F)F
[1]
Details	mass density [kg/m3]	viscosity [mPa·s]
293.15 K	1377.86	81.02
298.15 K	1373.16	65.01
303.15 K	1368.51	52.96
308.15 K	1363.9	43.84
313.15 K	1359.32	36.79
318.15 K	1354.76	31.25
323.15 K	1350.21	26.79

CCO [ethanol]
[1]
Details	mass density [kg/m3]	viscosity [mPa·s]
293.15 K	789.53	1.177
298.15 K	785.25	1.074
303.15 K	780.93	0.977
308.15 K	776.58	0.888
313.15 K	772.19	0.819
318.15 K	767.75	0.753
323.15 K	763.27	0.697

CO [methanol]
[1]
Details	mass density [kg/m3]	viscosity [mPa·s]
293.15 K	791.3	0.584
298.15 K	786.6	0.552
303.15 K	781.87	0.524
308.15 K	777.12	0.49
313.15 K	772.34	0.459
318.15 K	767.52	0.439
323.15 K	762.67	0.417

CCO [ethanol] + CC[N+](CC)=C(N(C)C)N(C)C.O=S(=O)([N-]S(=O)(=O)C(F)(F)F)C(F)(F)F
[2]
Details	mass density [kg/m3]	viscosity [mPa·s]
293.15 K	789.53	1.177
298.15 K	785.25	1.074
303.15 K	780.93	0.977
308.15 K	776.58	0.888
313.15 K	772.19	0.819
318.15 K	767.75	0.753
323.15 K	763.27	0.697

CO [methanol] + CC[N+](CC)=C(N(C)C)N(C)C.O=S(=O)([N-]S(=O)(=O)C(F)(F)F)C(F)(F)F
[2]
Details	mass density [kg/m3]	viscosity [mPa·s]
293.15 K	791.3	0.584
298.15 K	786.6	0.552
303.15 K	781.87	0.524
308.15 K	777.12	0.49
313.15 K	772.34	0.459
318.15 K	767.52	0.439
323.15 K	762.67	0.417
